Legend:
Assay type in all cases: cell-based
HCT-116 = test: NCI-60 one-dose screen; settings: Homo sapiens, read-out: Growth inhibition %
OVCAR-8 = test: NCI-60 one-dose screen; settings: Homo sapiens; OVCAR-8, Ovarian Cancer panel; single dose 10^−5 M; read-out: Growth inhibition %
M14 = test: NCI-60 one-dose screen; settings: Homo sapiens; M14, Melanoma panel; single dose 10^−5 M; read-out: Growth inhibition %
EKVX = test: NCI-60 one-dose screen; settings: Homo sapiens, Non-small cell lung panel, single dose 10^−5 M, read-out: Growth inhibition %
NCI-H23 = test: NCI-60 one-dose screen; settings: Homo sapiens; NCI-H23, Non-small cell lung panel; single dose 10^−5 M; read-out: Growth inhibition %
ACHN = test: NCI-60 one-dose screen; settings: Homo sapiens, Renal Cancer panel, single dose 10^−5 M, read-out: Growth inhibition %
COLO 205 = test: NCI-60 one-dose screen; settings: Homo sapiens; COLO 205, Colon Cancer panel; single dose 10^−5 M; read-out: Growth inhibition %
A498 = test: NCI-60 one-dose screen; settings: Homo sapiens; A498, Renal Cancer panel; single dose 10^−5 M; read-out: Growth inhibition %
U251 = test: NCI-60 one-dose screen; settings: Homo sapiens, U-251; U251, CNS Cancer panel; single dose 10^−5 M; read-out: Growth inhibition %
A549/ATCC = test: NCI-60 one-dose screen; settings: Homo sapiens, Non-small cell lung panel, single dose 10^−5 M, read-out: Growth inhibition %
SN12C = test: NCI-60 one-dose screen; settings: Homo sapiens, Renal Cancer panel, single dose 10^−5 M, read-out: Growth inhibition %
NCI-H522 = test: NCI-60 one-dose screen; settings: Homo sapiens; NCI-H522, Non-small cell lung panel; single dose 10^−5 M; read-out: Growth inhibition %
HOP-92 = test: NCI-60 one-dose screen; settings: Homo sapiens; HOP-92, Non-small cell lung panel; single dose 10^−5 M; read-out: Growth inhibition %
SK-OV-3 = test: NCI-60 one-dose screen; settings: Homo sapiens; SK-OV-3, Ovarian Cancer panel; single dose 10^−5 M; read-out: Growth inhibition %
SNB-75 = test: NCI-60 one-dose screen; settings: Homo sapiens; SNB-75, CNS Cancer panel; single dose 10^−5 M; read-out: Growth inhibition %
HOP-62 = test: NCI-60 one-dose screen; settings: Homo sapiens; HOP-62, Non-small cell lung panel; single dose 10^−5 M; read-out: Growth inhibition %
K-562 = test: NCI-60 one-dose screen; settings: Homo sapiens, K562; K-562, Leukemia panel; single dose 10^−5 M; read-out: Growth inhibition %
OVCAR-4 = test: NCI-60 one-dose screen; settings: Homo sapiens; OVCAR-4, Ovarian Cancer panel; single dose 10^−5 M; read-out: Growth inhibition %
SF-539 = test: NCI-60 one-dose screen; settings: Homo sapiens; SF-539, CNS Cancer panel; single dose 10^−5 M; read-out: Growth inhibition %
NCI-H460 = test: NCI-60 one-dose screen; settings: Homo sapiens; NCI-H460, Non-small cell lung panel; single dose 10^−5 M; read-out: Growth inhibition %
UACC-257 = test: NCI-60 one-dose screen; settings: Homo sapiens; UACC-257, Melanoma panel; single dose 10^−5 M; read-out: Growth inhibition %
UO-31 = test: NCI-60 one-dose screen; settings: Homo sapiens; UO-31, Renal Cancer panel; single dose 10^−5 M; read-out: Growth inhibition %
RXF 393 = test: NCI-60 one-dose screen; settings: Homo sapiens; RXF 393, Renal Cancer panel; single dose 10^−5 M; read-out: Growth inhibition %
MDA-MB-231/ATCC = test: NCI-60 one-dose screen; settings: Homo sapiens, Breast Cancer panel, single dose 10^−5 M, read-out: Growth inhibition %
MALME-3M = test: NCI-60 one-dose screen; settings: Homo sapiens, Melanoma panel, single dose 10^−5 M, read-out: Growth inhibition %
SK-MEL-5 = test: NCI-60 one-dose screen; settings: Homo sapiens; SK-MEL-5, Melanoma panel; single dose 10^−5 M; read-out: Growth inhibition %
HCC-2998 = test: NCI-60 one-dose screen; settings: Homo sapiens; HCC-2998, Colon Cancer panel; single dose 10^−5 M; read-out: Growth inhibition %
SW-620 = test: NCI-60 one-dose screen; settings: Homo sapiens; SW-620, Colon Cancer panel; single dose 10^−5 M; read-out: Growth inhibition %
BT-549 = test: NCI-60 one-dose screen; settings: Homo sapiens; BT-549, Breast Cancer panel; single dose 10^−5 M; read-out: Growth inhibition %
NCI-H226 = test: NCI-60 one-dose screen; settings: Homo sapiens; NCI-H226, Non-small cell lung panel; single dose 10^−5 M; read-out: Growth inhibition %
MOLT-4 = test: NCI-60 one-dose screen; settings: Homo sapiens; MOLT-4, Leukemia panel; single dose 10^−5 M; read-out: Growth inhibition %
[1] = test system: panel of 60 human tumor cell lines; test: NCI 60-cell line one-dose screen (mean); settings: mean of the 60 cell lines, single dose 10^−5 M, read-out: Mean % Growth Inhibition
Summary of the method: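 Primary NCI screen: one concentration (10^−5 M) applied to all 60 human cancer cell lines from 9 tissue types; growth inhibition reported as a percentage.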

SMILES: COc1cccc(CNc2c3ccccc3nc3ccccc23)c1 [Compound 6, Acridin-9-yl-(3-methoxybenzyl)-amine]
- inhibition at 10 µM (HCT-116): 90.1%
- inhibition at 10 µM (OVCAR-8): 68.1%
- inhibition at 10 µM (M14): 64.8%
- inhibition at 10 µM (EKVX): 48.2%
- inhibition at 10 µM (NCI-H23): 62.7%
- inhibition at 10 µM (ACHN): 80.8%
- inhibition at 10 µM (COLO 205): 90.4%
- inhibition at 10 µM (A498): 96.3%
- inhibition at 10 µM (U251): 61.3%
- inhibition at 10 µM (A549/ATCC): 69.8%
- inhibition at 10 µM (SN12C): 62.1%
- inhibition at 10 µM (NCI-H522): 38.3%
- inhibition at 10 µM (HOP-92): 74.5%
- inhibition at 10 µM (SK-OV-3): 45.3%
- inhibition at 10 µM (SNB-75): 43.1%
- inhibition at 10 µM (HOP-62): 53.5%
- inhibition at 10 µM (K-562): 93.4%
- inhibition at 10 µM (OVCAR-4): 56.4%
- inhibition at 10 µM (SF-539): 80.6%
- inhibition at 10 µM (NCI-H460): 90%
- inhibition at 10 µM (UACC-257): 45%
- inhibition at 10 µM (UO-31): 73%
- inhibition at 10 µM (RXF 393): 86.2%
- inhibition at 10 µM (MDA-MB-231/ATCC): 50.1%
- inhibition at 10 µM (MALME-3M): 56%
- inhibition at 10 µM (SK-MEL-5): 42.4%
- inhibition at 10 µM (HCC-2998): 60.7%
- inhibition at 10 µM (SW-620): 74.5%
- inhibition at 10 µM (BT-549): 31.3%
- inhibition at 10 µM (NCI-H226): 51.9%
- inhibition at 10 µM (MOLT-4): 93.6%
- inhibition at 10 µM [1]: 63.1%

SMILES: COc1ccc2nc3ccccc3c(NCc3ccc(F)cc3)c2c1 [Compound 28, (4-Fluorobenzyl)-(2-methoxyacridin-9-yl)-amine]
- inhibition at 10 µM (HCT-116): 91.1%
- inhibition at 10 µM (OVCAR-8): 80.5%
- inhibition at 10 µM (M14): 84.7%
- inhibition at 10 µM (EKVX): 77.6%
- inhibition at 10 µM (NCI-H23): 86%
- inhibition at 10 µM (ACHN): 94.3%
- inhibition at 10 µM (COLO 205): 154%
- inhibition at 10 µM (A498): 108%
- inhibition at 10 µM (U251): 77.9%
- inhibition at 10 µM (A549/ATCC): 80.3%
- inhibition at 10 µM (SN12C): 83%
- inhibition at 10 µM (NCI-H522): 81.8%
- inhibition at 10 µM (HOP-92): 111%
- inhibition at 10 µM (SK-OV-3): 62.1%
- inhibition at 10 µM (SNB-75): 76.2%
- inhibition at 10 µM (HOP-62): 71.8%
- inhibition at 10 µM (K-562): 98%
- inhibition at 10 µM (OVCAR-4): 86.4%
- inhibition at 10 µM (SF-539): 96.2%
- inhibition at 10 µM (NCI-H460): 94.5%
- inhibition at 10 µM (UACC-257): 111%
- inhibition at 10 µM (UO-31): 108%
- inhibition at 10 µM (RXF 393): 119%
- inhibition at 10 µM (MDA-MB-231/ATCC): 83.3%
- inhibition at 10 µM (MALME-3M): 105%
- inhibition at 10 µM (SK-MEL-5): 107%
- inhibition at 10 µM (HCC-2998): 178%
- inhibition at 10 µM (SW-620): 85.3%
- inhibition at 10 µM (BT-549): 65%
- inhibition at 10 µM (NCI-H226): 70%
- inhibition at 10 µM (MOLT-4): 99.5%
- inhibition at 10 µM [1]: 92.2%

SMILES: c1ccc(CNc2c3ccccc3nc3ccccc23)cc1 [Compound 1, Acridin-9-yl-benzyl-amine]
- inhibition at 10 µM (HCT-116): 91.6%
- inhibition at 10 µM (OVCAR-8): 73.9%
- inhibition at 10 µM (M14): 67.7%
- inhibition at 10 µM (EKVX): 51.9%
- inhibition at 10 µM (NCI-H23): 58.8%
- inhibition at 10 µM (ACHN): 81.9%
- inhibition at 10 µM (COLO 205): 92.7%
- inhibition at 10 µM (A498): 83.4%
- inhibition at 10 µM (U251): 61.5%
- inhibition at 10 µM (A549/ATCC): 71.5%
- inhibition at 10 µM (SN12C): 62.5%
- inhibition at 10 µM (NCI-H522): 43.2%
- inhibition at 10 µM (HOP-92): 74.1%
- inhibition at 10 µM (SK-OV-3): 53.3%
- inhibition at 10 µM (SNB-75): 35.6%
- inhibition at 10 µM (HOP-62): 54%
- inhibition at 10 µM (K-562): 87.7%
- inhibition at 10 µM (OVCAR-4): 56.8%
- inhibition at 10 µM (SF-539): 76%
- inhibition at 10 µM (NCI-H460): 89.7%
- inhibition at 10 µM (UACC-257): 47.3%
- inhibition at 10 µM (UO-31): 76.2%
- inhibition at 10 µM (RXF 393): 58.1%
- inhibition at 10 µM (MDA-MB-231/ATCC): 42.1%
- inhibition at 10 µM (MALME-3M): 62.6%
- inhibition at 10 µM (SK-MEL-5): 36.9%
- inhibition at 10 µM (HCC-2998): 61.8%
- inhibition at 10 µM (SW-620): 75.5%
- inhibition at 10 µM (BT-549): 27.2%
- inhibition at 10 µM (NCI-H226): 48.3%
- inhibition at 10 µM (MOLT-4): 84.5%
- inhibition at 10 µM [1]: 62.7%

SMILES: Cc1ccc2nc3ccccc3c(NCc3ccc(Cl)cc3)c2c1 [Compound 31, (4-Chlorobenzyl)-(2-methyl-acridin-9-yl)-amine]
- inhibition at 10 µM (HCT-116): 85.3%
- inhibition at 10 µM (OVCAR-8): 47.6%
- inhibition at 10 µM (M14): 117%
- inhibition at 10 µM (EKVX): 44.6%
- inhibition at 10 µM (NCI-H23): 54%
- inhibition at 10 µM (ACHN): 66.7%
- inhibition at 10 µM (COLO 205): 153%
- inhibition at 10 µM (A498): 87%
- inhibition at 10 µM (U251): 74.9%
- inhibition at 10 µM (A549/ATCC): 59.2%
- inhibition at 10 µM (SN12C): 60.5%
- inhibition at 10 µM (NCI-H522): 45.8%
- inhibition at 10 µM (HOP-92): 105%
- inhibition at 10 µM (SK-OV-3): 24.8%
- inhibition at 10 µM (SNB-75): 33.5%
- inhibition at 10 µM (HOP-62): 34.8%
- inhibition at 10 µM (K-562): 97.4%
- inhibition at 10 µM (OVCAR-4): 62.5%
- inhibition at 10 µM (SF-539): 59.8%
- inhibition at 10 µM (NCI-H460): 70.5%
- inhibition at 10 µM (UACC-257): 103%
- inhibition at 10 µM (UO-31): 75.5%
- inhibition at 10 µM (RXF 393): 71%
- inhibition at 10 µM (MDA-MB-231/ATCC): 62.3%
- inhibition at 10 µM (MALME-3M): 114%
- inhibition at 10 µM (SK-MEL-5): 46%
- inhibition at 10 µM (HCC-2998): 179%
- inhibition at 10 µM (SW-620): 68%
- inhibition at 10 µM (BT-549): 24.4%
- inhibition at 10 µM (NCI-H226): 27.7%
- inhibition at 10 µM (MOLT-4): 99.9%
- inhibition at 10 µM [1]: 66.9%

From paper PMC9866191, “Novel 9-Benzylaminoacridine Derivatives as Dual Inhibitors of Phosphodiesterase 5 and Topoisomerase II for the Treatment of Colon Cancer” (Molecules, 2023)
